How the values were obtained:
[1] = target: T1, human P-Selectin-IgG-chimera (Homo sapiens, UniProt P16109); experiment: Sialyl Lewis X Tyrosine Sulfate Assay (sLex TSA), P-selectin; parameters: IgG (chimera partner); settings: inhibition of binding of sLex-tyrosine sulfate polyacrylamide ligand complex to selectin chimera
Method: (§1) Compounds of the present invention are assayed on a molecular level for their ability to inhibit the binding of P-, L-, or E-selectin chimeric molecules to sLe^x and tyrosinesulfate residues linked to a polymeric matrix as a PSGL-1 substitute. Selected IC50-values are determined.
(§2) Microtiter plates are coated overnight in carbonate buffer pH9.6 with goat anti human Fc mAB (10 μg/ml). After washing in assay buffer (25 mM 4-(2-hydroxyethyl)-1-piperazineethanesulfonic acid (HEPES), 150 mM NaCl, 1 mM CaCl2 pH7.4) and blocking (3% bovine serum albumin (BSA) in assay buffer) plates are incubated for 2 h at 37° C. with human P-Selectin-IgG-chimera (0.61 nM respectively 150 ng/mL) or human L-Selectin-IgG-chimera (0.61 nM respectively 89 ng/mL) or human E-Selectin-IgG-chimera (0.61 nM respectively 131 ng/mL). 5 μl of sLe^x-tyrosine sulfate polyacrylamide (1 mg/ml) carrying 15% sLe^x, 10% Tyrosine-sulfate and 5% biotin is complexed with 20 μl Streptavidin-Peroxidase solution (1 mg/ml) and 25 μl assay buffer without CaCl2. For use in the assay, the ligand complex is diluted 1:10000 in assay buffer and further diluted 1:1 with varying amounts of compounds in assay buffer incl. 2% DMSO. This mixture is added to the wells precoated with E- or P-selectin. After incubation for 2 h at 37° C., wells are washed for six times with in assay buffer incl. 0.005% Polyoxyethylenesorbitan monolaurate (TWEEN 20), developed for 10-15 min with 20 μl 3,3′,5,5′-tetramethylbenzidine (TMB)/H2O2 substrate solution and stopped with 20 μl 1M H2SO4. Bound sLe^x-Tyrosine sulfate ligand complex is determined by measuring optical density at 450 nm vs. 620 nm in a Fusion alpha-FP reader (sold from Packard Bioscience, Dreieich, Germany).

[2] = target: T2, human E-Selectin-IgG-chimera (Homo sapiens, UniProt P16581); experiment: Sialyl Lewis X Tyrosine Sulfate Assay (sLex TSA), E-selectin; parameters: IgG (chimera partner); settings: inhibition of binding of sLex-tyrosine sulfate polyacrylamide ligand complex to selectin chimera
Method: as §1, §2

[3] = target: T1, human P-Selectin-IgG-chimera; experiment: Flow chamber assay, cell adhesion and rolling under flow conditions, P-selectin; format: cell-based; settings: 125 μM compound, HL-60 cells, flow shear 1 dyne/cm^2, dish coated 10 μg/ml P-selectin-IgG chimera
Method: (§3) Flow Chamber Assay/Cell Adhesion and Rolling Under Flow Conditions
(§4) To assess the capability of compounds to inhibit cell binding under dynamic conditions resembling the flow in a blood vessel, flow chamber assays addressing/testing binding of HL-60 cells/various cell lines to P-selectin, L-selectin and E-selectin chimeric molecules are performed.
(§5) Cell attachment under flow conditions are determined using a parallel flow chamber system. A 35 mm polystyrene culture dish is coated for 1 hour at room temperature with coating buffer (50 mM tris-(hydroxymethyl)aminomethane buffer (Tris), 150 mM NaCl, 2 mM CaCl2; pH 7.4) containing human E- or P-selectin-IgG chimera at concentrations of 2.5 μg/ml or 10 μg/ml, respectively. After removal of the coating solution non specific binding sites are blocked for an additional hour with 1% BSA in coating buffer at room temperature. After washing with assay buffer (“Roswell Park Memorial Institute 1640” (RPMI 1640)+10 mM HEPES) the dish is fitted into a parallel plate laminar flow chamber (sold from Glycotech, Rockville, Md.) and mounted on an inverted phase-contrast microscope (sold from Olympus, Hamburg, Germany) equipped with a CCD camera (JVC) that is connected to a PC. Employing a peristaltic pump (sold from Ismatec, Wertheim-Mondfeld, Germany) the re-circulating system is equilibrated with assay buffer containing 125 μM compound or vehicle control (DMSO). Cells (1 million/ml) are added to the chamber and allowed to distribute for 2 minutes at a high flow rate. The flow rate is then decreased resulting in a calculated flow shear of 1 dyne/cm^2. Video sequences of 10 low power fields are digitally recorded after 5 minutes continuous flow. The percentage of inhibition is calculated from the mean number of cells per field that attached to the coated dish surface in the presence versus absence of compound […].
(§6) Data from Flow Chamber Assay for E- and P-Selectin

[4] = target: T2, human E-Selectin-IgG-chimera; experiment: Flow chamber assay, cell adhesion and rolling under flow conditions, E-selectin; format: cell-based; settings: 125 μM compound, HL-60 cells, flow shear 1 dyne/cm^2, dish coated 2.5 μg/ml E-selectin-IgG chimera
Method: as §3, §4, §5, §6

[5] = target: T3, human L-Selectin-IgG-chimera (Homo sapiens, UniProt P14151); experiment: Sialyl Lewis X Tyrosine Sulfate Assay (sLex TSA), L-selectin; settings: inhibition of binding of sLex-tyrosine sulfate polyacrylamide ligand complex to selectin chimera
T3 construct: IgG (chimera partner)
Method: as §1, §2

T1 sequence (P16109 with tags, fused parts or gaps limits assumed): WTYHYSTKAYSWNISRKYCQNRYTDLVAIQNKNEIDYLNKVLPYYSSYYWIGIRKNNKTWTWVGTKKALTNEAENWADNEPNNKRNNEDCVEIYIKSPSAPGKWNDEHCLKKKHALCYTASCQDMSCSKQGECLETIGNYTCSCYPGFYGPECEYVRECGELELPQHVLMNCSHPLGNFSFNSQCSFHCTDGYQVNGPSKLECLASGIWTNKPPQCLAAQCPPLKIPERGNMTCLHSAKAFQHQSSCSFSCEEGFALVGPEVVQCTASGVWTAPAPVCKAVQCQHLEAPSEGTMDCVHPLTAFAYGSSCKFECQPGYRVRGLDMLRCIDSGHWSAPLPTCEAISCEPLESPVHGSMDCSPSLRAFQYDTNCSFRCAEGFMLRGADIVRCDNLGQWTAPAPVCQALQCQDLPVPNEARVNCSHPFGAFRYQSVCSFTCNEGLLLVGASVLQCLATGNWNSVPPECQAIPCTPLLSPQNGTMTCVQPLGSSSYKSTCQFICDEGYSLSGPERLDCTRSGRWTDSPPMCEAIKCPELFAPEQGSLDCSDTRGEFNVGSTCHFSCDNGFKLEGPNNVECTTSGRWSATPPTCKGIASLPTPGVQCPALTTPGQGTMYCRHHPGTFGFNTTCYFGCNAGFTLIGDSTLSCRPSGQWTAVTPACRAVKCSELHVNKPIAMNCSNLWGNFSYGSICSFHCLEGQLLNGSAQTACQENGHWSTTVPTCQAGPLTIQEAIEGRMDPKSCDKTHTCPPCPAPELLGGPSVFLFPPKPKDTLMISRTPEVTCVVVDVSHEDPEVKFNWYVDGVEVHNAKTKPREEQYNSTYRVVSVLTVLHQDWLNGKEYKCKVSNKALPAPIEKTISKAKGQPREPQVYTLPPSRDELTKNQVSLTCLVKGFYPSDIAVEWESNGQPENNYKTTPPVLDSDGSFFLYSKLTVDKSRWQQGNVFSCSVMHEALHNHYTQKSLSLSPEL
T2 sequence (P16581 with tags, fused parts or gaps limits assumed): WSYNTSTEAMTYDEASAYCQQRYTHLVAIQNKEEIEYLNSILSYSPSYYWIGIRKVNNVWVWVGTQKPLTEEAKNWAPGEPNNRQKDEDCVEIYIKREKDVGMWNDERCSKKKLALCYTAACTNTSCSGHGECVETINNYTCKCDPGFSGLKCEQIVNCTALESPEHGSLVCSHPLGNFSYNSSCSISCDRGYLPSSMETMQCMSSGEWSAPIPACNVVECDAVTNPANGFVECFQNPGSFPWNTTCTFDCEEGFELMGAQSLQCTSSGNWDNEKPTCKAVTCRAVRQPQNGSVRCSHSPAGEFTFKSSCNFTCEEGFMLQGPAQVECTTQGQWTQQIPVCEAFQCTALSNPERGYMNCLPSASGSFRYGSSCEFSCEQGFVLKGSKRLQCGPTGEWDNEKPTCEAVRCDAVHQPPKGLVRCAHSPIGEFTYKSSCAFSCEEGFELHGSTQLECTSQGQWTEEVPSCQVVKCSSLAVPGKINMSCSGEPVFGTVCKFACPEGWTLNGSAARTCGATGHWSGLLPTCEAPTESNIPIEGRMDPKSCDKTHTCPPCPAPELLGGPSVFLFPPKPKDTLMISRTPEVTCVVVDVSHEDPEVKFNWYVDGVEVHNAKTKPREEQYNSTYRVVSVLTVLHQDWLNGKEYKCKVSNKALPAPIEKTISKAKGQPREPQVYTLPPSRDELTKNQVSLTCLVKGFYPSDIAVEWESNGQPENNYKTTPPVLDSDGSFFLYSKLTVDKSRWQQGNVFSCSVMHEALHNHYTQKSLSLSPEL
T3 sequence (P14151 with tags, fused parts or gaps limits assumed): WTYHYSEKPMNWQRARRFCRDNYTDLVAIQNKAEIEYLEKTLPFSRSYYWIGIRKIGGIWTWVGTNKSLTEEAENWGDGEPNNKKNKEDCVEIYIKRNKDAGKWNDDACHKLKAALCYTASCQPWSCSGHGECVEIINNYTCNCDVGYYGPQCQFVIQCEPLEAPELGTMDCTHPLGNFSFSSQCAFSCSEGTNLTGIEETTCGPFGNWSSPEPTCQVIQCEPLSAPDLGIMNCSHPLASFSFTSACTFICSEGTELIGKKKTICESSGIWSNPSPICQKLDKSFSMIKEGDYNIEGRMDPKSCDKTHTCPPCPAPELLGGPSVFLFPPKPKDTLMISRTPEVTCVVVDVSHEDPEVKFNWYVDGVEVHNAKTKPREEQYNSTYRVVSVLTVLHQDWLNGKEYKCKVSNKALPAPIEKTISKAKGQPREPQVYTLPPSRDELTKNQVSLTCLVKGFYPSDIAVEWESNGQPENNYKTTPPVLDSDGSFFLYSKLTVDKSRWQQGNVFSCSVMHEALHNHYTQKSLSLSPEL

SMILES | IC50 [1] [µM] | IC50 [2] [µM] | P-Selectin [Ratio]: normalized ratio of %-inhibition of compound divided by %-inhibition of bimosiamose [3] [Ratio] | E-Selectin [Ratio]: normalized ratio of %-inhibition of compound divided by %-inhibition of bimosiamose [4] [Ratio] | IC50 [5] [µM]
Cc1oc(-c2ccc(NC(=O)c3cccc(-c4c(O)cc(O)cc4O)c3)cc2)cc1C(=O)O [Compound 60, 2-Methyl-5-{4-[(2′,4′,6′-trihydroxy-biphenyl-3-carbonyl)-amino]-phenyl}-furan-3-carboxylic acid] | 5.2 | 7.8 | 0.99 | 1.05 | 6.1
O=C(Nc1cccc(C(F)(F)F)c1)c1cccc(-c2c(O)cc(O)cc2O)c1 [Compound 66, 2′,4′,6′-Trihydroxy-biphenyl-3-carboxylic acid (3-trifluoromethyl-phenyl)-amide] |  |  | 1.19 | 1.47 | 
O=C(O)c1cccc(NC(=O)c2cccc(-c3c(O)cc(O)cc3O)c2)c1 [Compound 67, 3-[(2′,4′,6′-Trihydroxy-biphenyl-3-carbonyl)-amino]-benzoic acid] | 23.3 | 27.3 | 0.95 | 0.79 | 25.2
O=C(O)Cc1ccc(-c2ccccc2NC(=O)Cc2c(O)cc(O)cc2O)s1 [Compound 25, (5-{2-[2-(2,4,6-Trihydroxy-phenyl)-acetylamino]-phenyl}-thiophen-2-yl)-acetic acid] | 87.9 | 105 | 1.65 | 0.94 | 95.9
O=C(Cc1c(O)cc(O)cc1O)Nc1cccc(C(=O)O)c1 [Compound 18, 3-[2-(2,4,6-Trihydroxy-phenyl)-acetylamino]-benzoic acid] | 37.1 | 41.2 | 1.07 | 0.80 | 35.1
Cc1oc(-c2ccc(NC(=O)Cc3c(O)cc(O)cc3O)cc2)cc1C(=O)O [Compound 19, 2-Methyl-5-{4-[2-(2,4,6-trihydroxy-phenyl)-acetylamino]-phenyl}-furan-3-carboxylic acid] | 20.7 | 12.4 | 1.27 | 0.75 | 22.1
O=C(O)Cc1ccc(-c2ccccc2NC(=O)c2cccc(-c3c(O)cc(O)cc3O)c2)s1 [Compound 63, (5-{2-[(2′,4′,6′-Trihydroxy-biphenyl-3-carbonyl)-amino]-phenyl}-thiophen-2-yl)-acetic acid] | 17.4 | 21.9 | 0.87 | 1.23 | 17.4
O=C(O)Cc1cccc(-c2cc(CCCCCCc3ccc(O[C@H]4O[C@H](CO)[C@@H](O)[C@H](O)[C@@H]4O)c(-c4cccc(CC(=O)O)c4)c3)ccc2O[C@H]2O[C@H](CO)[C@@H](O)[C@H](O)[C@@H]2O)c1 [Bimosiamose, bimosiamose, reference compound] |  |  |  |  | > 500
O=C(Nc1ccccc1-c1ccc(C(=O)O)s1)c1cccc(-c2c(O)cc(O)cc2O)c1 [Compound 26, 5-{2-[(2′,4′,6′-trihydroxy-biphenyl-3-carbonyl)-amino]-phenyl}-thiophene-2-carboxylic acid] | 27.8 | 33.3 | 0.77 | 1.11 | 28.2
O=C(O)Cc1ccc(-c2cccc(NC(=O)c3cccc(-c4c(O)cc(O)cc4O)c3)c2)s1 [Compound 64, (5-{3-[(2′,4′,6′-trihydroxy-biphenyl-3-carbonyl)-amino]-phenyl}-thiophen-2-yl)-acetic acid] | 6 | 5.7 | 1.23 | 1.06 | 6.3
O=C(Nc1ccccc1-c1cccs1)c1cccc(-c2c(O)cc(O)cc2O)c1 [Compound 65, 2′,4′,6′-Trihydroxy-biphenyl-3-carboxylic acid (2-thiophen-2-yl-phenyl)-amide] | 8.2 | 28.1 | 0.99 | 1.13 | 15.5

— patent US7919532B2, “Hydroxylated aromatic compounds” (Revotar Biopharmaceuticals AG, priority 2005, dated 2011)
